# Patent US20240115557A1, “INHIBITORS OF RNA-GUIDED NUCLEASES AND USES THEREOF” (The Brigham and Women's Hospital, Inc., priority 2022, published 2024)
# Tests used:
# SaCas9 = molecular target: T1, SaCas9 (Staphylococcus aureus, UniProt J7RUA5); experiment: eGFP secondary assay, SaCas9; assay type: cell-based; settings: for Z score Avg Z: average of two replicates, Zscore>3 selected as hit; for Normalized Inhibition Rep 1: replicate 1; for Normalized eGFP Disruption Rep 1: replicate 1, % eGFP disruption; for Z score Rep1: replicate 1, Zscore>3 selected as hit; for Normalized Inhibition Rep 2: replicate 2; for Normalized eGFP Disruption Rep 2: replicate 2, % eGFP disruption; for Z score Rep 2: replicate 2, Zscore>3 selected as hit
# T1 sequence (J7RUA5 1-1053): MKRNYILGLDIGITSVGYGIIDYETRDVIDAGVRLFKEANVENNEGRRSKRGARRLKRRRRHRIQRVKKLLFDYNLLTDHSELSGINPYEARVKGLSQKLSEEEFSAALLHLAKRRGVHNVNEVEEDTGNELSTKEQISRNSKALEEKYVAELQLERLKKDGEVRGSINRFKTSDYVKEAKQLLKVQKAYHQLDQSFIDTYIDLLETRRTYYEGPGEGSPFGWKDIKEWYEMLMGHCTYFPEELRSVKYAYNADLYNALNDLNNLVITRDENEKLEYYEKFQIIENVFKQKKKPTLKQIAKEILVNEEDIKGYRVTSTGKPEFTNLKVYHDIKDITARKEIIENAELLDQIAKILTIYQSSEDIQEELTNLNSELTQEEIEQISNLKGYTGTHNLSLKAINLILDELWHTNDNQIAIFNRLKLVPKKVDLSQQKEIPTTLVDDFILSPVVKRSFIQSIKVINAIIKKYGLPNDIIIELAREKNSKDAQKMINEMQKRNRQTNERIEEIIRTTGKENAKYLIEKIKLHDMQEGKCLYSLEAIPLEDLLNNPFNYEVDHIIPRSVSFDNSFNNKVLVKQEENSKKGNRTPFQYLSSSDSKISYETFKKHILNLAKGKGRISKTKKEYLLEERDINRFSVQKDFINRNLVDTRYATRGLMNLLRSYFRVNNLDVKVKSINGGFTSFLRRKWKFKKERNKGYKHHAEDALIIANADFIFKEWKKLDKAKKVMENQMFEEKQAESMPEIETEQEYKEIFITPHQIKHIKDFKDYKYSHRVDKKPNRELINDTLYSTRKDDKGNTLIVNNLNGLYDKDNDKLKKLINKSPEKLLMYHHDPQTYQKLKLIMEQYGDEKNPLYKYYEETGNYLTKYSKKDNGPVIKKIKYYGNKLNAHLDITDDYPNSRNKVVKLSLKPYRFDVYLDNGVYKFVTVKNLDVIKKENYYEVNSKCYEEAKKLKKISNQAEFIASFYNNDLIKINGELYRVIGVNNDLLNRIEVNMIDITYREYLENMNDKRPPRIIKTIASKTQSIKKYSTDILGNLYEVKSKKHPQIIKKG
# Procedure: All hit compounds were moved forward into the secondary and tertiary screens, in which they were tested in cell-based assays. An eGFP assay is used to determine hits in cells as the secondary screen (eGFP assay).
# The eGFP secondary assay evaluated the hits identified from the primary screen. The compounds were judged off the % eGFP disruption to determine the Cas9 inhibition and the assay Zscore. […] The hits from the secondary screens will be processed through tertiary screens of dose studies and HiBit Assay as detailed herein.
# SpCas9 [1] = molecular target: T2, SpCas9 (Streptococcus pyogenes serotype M1, UniProt Q99ZW2); experiment: eGFP disruption assay, SpCas9, U2OS.eGFP.PEST cells; assay type: cell-based; settings: for Normalized Z rep1 / Z score Rep1: replicate 1; for SpCas9 eGFP disruption Rep1: replicate 1, raw readout; for Normalized Z rep2 / Z socre Rep2: replicate 2; for SpCas9 eGFP disruption Rep2: replicate 2, raw readout
# T2 sequence (Q99ZW2 whole entry): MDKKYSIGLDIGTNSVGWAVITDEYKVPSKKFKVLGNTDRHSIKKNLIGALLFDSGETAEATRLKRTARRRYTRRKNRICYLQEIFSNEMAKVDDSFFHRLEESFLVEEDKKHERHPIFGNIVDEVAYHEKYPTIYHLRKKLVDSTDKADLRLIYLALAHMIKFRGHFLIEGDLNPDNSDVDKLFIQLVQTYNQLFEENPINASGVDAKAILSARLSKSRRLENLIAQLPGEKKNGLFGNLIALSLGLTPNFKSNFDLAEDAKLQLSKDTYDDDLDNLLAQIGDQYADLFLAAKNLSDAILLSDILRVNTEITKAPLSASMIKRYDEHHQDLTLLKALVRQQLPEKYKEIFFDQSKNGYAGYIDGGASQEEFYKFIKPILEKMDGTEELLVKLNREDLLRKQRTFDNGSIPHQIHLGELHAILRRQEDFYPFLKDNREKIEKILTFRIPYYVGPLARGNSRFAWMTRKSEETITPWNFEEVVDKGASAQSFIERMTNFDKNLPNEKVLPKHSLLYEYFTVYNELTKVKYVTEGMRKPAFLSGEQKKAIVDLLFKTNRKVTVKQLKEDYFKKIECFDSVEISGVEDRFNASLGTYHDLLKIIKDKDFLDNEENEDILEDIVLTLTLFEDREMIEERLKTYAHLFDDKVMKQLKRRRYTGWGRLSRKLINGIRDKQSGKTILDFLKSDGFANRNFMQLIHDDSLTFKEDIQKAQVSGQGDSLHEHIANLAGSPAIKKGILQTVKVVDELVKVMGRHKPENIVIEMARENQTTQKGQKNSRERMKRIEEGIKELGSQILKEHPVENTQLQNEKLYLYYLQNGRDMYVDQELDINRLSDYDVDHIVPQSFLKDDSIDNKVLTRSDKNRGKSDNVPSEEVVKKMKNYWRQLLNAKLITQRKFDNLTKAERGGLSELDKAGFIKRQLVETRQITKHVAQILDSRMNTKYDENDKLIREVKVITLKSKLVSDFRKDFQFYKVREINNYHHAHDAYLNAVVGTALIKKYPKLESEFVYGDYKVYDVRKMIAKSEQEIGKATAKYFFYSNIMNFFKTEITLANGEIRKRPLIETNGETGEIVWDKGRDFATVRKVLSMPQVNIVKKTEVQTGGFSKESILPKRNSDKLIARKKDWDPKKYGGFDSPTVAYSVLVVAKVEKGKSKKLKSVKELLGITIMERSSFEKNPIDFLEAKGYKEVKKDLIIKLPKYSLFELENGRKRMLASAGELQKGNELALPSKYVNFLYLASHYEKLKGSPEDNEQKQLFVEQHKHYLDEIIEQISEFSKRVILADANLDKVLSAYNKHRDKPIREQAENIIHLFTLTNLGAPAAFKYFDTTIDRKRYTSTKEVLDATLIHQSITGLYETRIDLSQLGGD
# Procedure, shortened: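 Rescue of eGFP signal lost through Cas9-induced NHEJ indels serves as the inhibition read-out, after 24 h compound exposure (20 μM for hits, variable for dose-response). Editing was delivered by nucleofection into U2OS.eGFP.PEST cells as SpCas9/gRNA plasmids (300/30 ng) or RNP (10/12 pmol). Toxic and autofluorescent compounds were excluded.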
# SpCas9 [2] = molecular target: T2, SpCas9; experiment: Strand displacement assay (SDA) / cumulative activity assay (CAA), SpCas9 primary screen; assay type: biochemical; settings: Primary Screen (150 min); for Average Normalized Z score: average of replicates; for Normalized Z score 1: replicate 1; for Normalized Z score 2: replicate 2
# Procedure, shortened: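 SpCas9:gRNA RNP in 20 mM Tris-HCl pH 7.5, 100 mM KCl, 5 mM MgCl2 was used at 10 nM (2× stock) with Alexa Fluor 647-labelled substrate and excess quencher strand (1 nM and 5 nM, 2× stocks). Fluorescence was read after 2.5 h at 37 °C, where cleavage lets the quencher strand anneal.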
# [3] = Cas9 = lower control, Ctrl = upper control
# [4] = normalized, lower control about 0, upper control about 1
SMILES,Z score Avg Z (SaCas9),Normalized Inhibition Rep 1 (SaCas9),Normalized eGFP Disruption Rep 1 (SaCas9),Z score Rep1 (SaCas9),Normalized Inhibition Rep 2 (SaCas9),Normalized eGFP Disruption Rep 2 (SaCas9),Z score Rep 2 (SaCas9),Z score Rep1 (SpCas9 [1]),Z socre Rep2 (SpCas9 [1]),avg z score primary (SpCas9 [2]),Average Normalized Z score (SpCas9 [2]),Normalized Z score 1 (SpCas9 [2]),Normalized Z score 2 (SpCas9 [2]),other results
Cc1cccc(NC(=O)c2cc3c(=O)n4ccccc4nc3s2)c1 [C243-0026],3.100,30.470,69.530,3.063,40.519,59.481,3.136,,,,,,,
CCOc1ccc(NC(=O)c2cc(=O)c3cc(CC)ccc3o2)c2cccnc12 [Compound D656-0061],3.973,7.616,92.384,1.153,56.899,43.101,6.794,,,,,,,
CCCCn1nnnc1NCc1ccc2c(c1)n(C)c(=O)n2C [Compound D664-0047],4.425,21.201,78.799,3.210,47.229,52.771,5.639,,,,,,,
Fc1cccc(-c2nnc3sc(-c4c[nH]c5ccccc45)nn23)c1 [Compound D727-0772],3.957,42.243,57.757,6.397,12.707,87.293,1.517,,,,,,,
Cc1ccc(-n2ncc(C(=O)Nc3ccc(Br)cc3)c2C2CCNCC2)cc1 [Compound E922-0258],7.627,63.301,36.699,7.494,59.004,40.996,7.761,,,,,,,
CCCCN(CC)C(=O)C1CCCN(c2ccc(-c3ccccc3)nn2)C1 (stereo not drawn) [Compound F305-0030],4.852,42.608,57.392,5.044,35.423,64.577,4.659,,,,,,,
Cc1[nH]nc2ccc(-c3cncc(OCC(N)Cc4ccccc4)c3)cc12 (stereo not drawn) [Compound S2670],,,,,,,,−22.46,−33.58,3.67,0.19,0.17,0.21,Normalized Z rep1 (SpCas9 [1]): −3.44; SpCas9 eGFP disruption Rep1 (SpCas9 [1]): 10.416; Normalized Z rep2 (SpCas9 [1]): −3.50; SpCas9 eGFP disruption Rep2 (SpCas9 [1]): 9.7985
Cl.Cl.Fc1cc(-c2cccc3ncc(-c4cnn(C5CCNCC5)c4)nc23)cc(F)c1CN1CCOCC1 [Compound S2686],,,,,,,,−4.74,−5.44,7.03,0.36,0.37,0.35,Normalized Z rep1 (SpCas9 [1]): −0.73; SpCas9 eGFP disruption Rep1 (SpCas9 [1]): 62.196; Normalized Z rep2 (SpCas9 [1]): −0.57; SpCas9 eGFP disruption Rep2 (SpCas9 [1]): 65.516
COc1ccc(-c2cc3c(C)nc(N)nc3n(C3CCC(OCCO)CC3)c2=O)cn1 (stereo not drawn) [Compound S2743],,,,,,,,−4.92,−8.50,8.74,0.45,0.45,0.44,Normalized Z rep1 (SpCas9 [1]): −0.75; SpCas9 eGFP disruption Rep1 (SpCas9 [1]): 61.679; Normalized Z rep2 (SpCas9 [1]): −0.89; SpCas9 eGFP disruption Rep2 (SpCas9 [1]): 59.461
COc1ccc(-c2ccc3ncc4c(c3c2)n(-c2ccc(N3CCNCC3)c(C(F)(F)F)c2)c(=O)n4C)cn1.O=C(O)C=CC(=O)O [Compound S2749],,,,,,,,−26.02,−38.53,6.76,0.34,0.35,0.34,Normalized Z rep1 (SpCas9 [1]): −3.98; SpCas9 eGFP disruption Rep1 (SpCas9 [1]): 0; Normalized Z rep2 (SpCas9 [1]): −4.01; SpCas9 eGFP disruption Rep2 (SpCas9 [1]): 0
Cc1c(P(=S)(N2CCOCC2)N2CCOCC2)cc(C#N)n1C [Compound T0503-9777],,,,,,,,1.11,1.28,4.67,0.06,0.06,0.06,SpCas9 eGFP disruption Rep1 (SpCas9 [1]; [3]): 60.694; Normalized Z rep1 (SpCas9 [1]; [4]): 0.08; SpCas9 eGFP disruption Rep2 (SpCas9 [1]; [3]): 57.686; Normalized Z rep2 (SpCas9 [1]; [4]): 0.06
CCOC(=O)C1=C(C)NN=C(Nc2cccc(C)c2C)S1 [Compound T0519-6400],,,,,,,,1.96,2.42,4.54,0.06,0.05,0.07,SpCas9 eGFP disruption Rep1 (SpCas9 [1]; [3]): 62.891; Normalized Z rep1 (SpCas9 [1]; [4]): 0.14; SpCas9 eGFP disruption Rep2 (SpCas9 [1]; [3]): 59.8; Normalized Z rep2 (SpCas9 [1]; [4]): 0.12
CCn1c(CCC(=O)O)nc2cc(S(N)(=O)=O)ccc21 [Compound T5380152],,,,,,,,−1.27,4.01,4.58,0.13,0.14,0.11,SpCas9 eGFP disruption Rep1 (SpCas9 [1]; [3]): 54.565; Normalized Z rep1 (SpCas9 [1]; [4]): −0.09; SpCas9 eGFP disruption Rep2 (SpCas9 [1]; [3]): 62.745; Normalized Z rep2 (SpCas9 [1]; [4]): 0.19
Cc1nc(Nc2ccc(N3CCOCC3)cc2)cc(-c2ccccc2)n1 [D278-0547],4.467,55.528,44.472,5.583,43.307,56.693,3.352,,,,,,,
Cc1ccccc1CC(=O)N1CCCC(c2nc(O)c3nnn(Cc4ccc(F)cc4)c3n2)C1 (stereo not drawn) [D297-0031],3.488,35.959,64.041,3.615,43.425,56.575,3.361,,,,,,,
Cc1cc(=O)c2cc(C(=O)Nc3ccc(F)cc3)ccc2[nH]1 [D421-0876],3.719,37.535,62.465,3.774,47.343,52.657,3.664,,,,,,,
Cc1nc2nc(N(CCOc3ccccc3)S(=O)(=O)c3ccccc3)nn2c(C)c1Cl [D513-3628],5.173,51.726,48.274,5.201,66.480,33.520,5.145,,,,,,,
Cc1ccc(C)c(Nc2nc(C(N)=O)c(NC(=O)c3ccc(C)nc3Cl)s2)c1 [D686-0195],6.110,29.879,70.121,4.525,64.458,35.542,7.696,,,,,,,
